Results on 13 compounds are retold here after patent publication EP4741395A1, “NOVEL COMPOUND SENSITIVE TO NITROGEN MONOXIDE AND PHARMACEUTICAL COMPOSITION COMPRISING SAME” (Omniamed Co. Ltd, priority 2023, dated 2025).

The nature of assay [1]: DAF-2 assay of NO scavenging activity (NO donor SNAP). The following applies: DAF-2 10 µM, SNAP 100 µM, PBS, 3 hours, 37°C. Type of assay: biochemical. The protocol:
NO scavenging activity of the pharmaceutical composition sensitive to nitrogen monoxide including the compound according to each of Examples 1 to 22, 29 to 31, and 33 to 35 was evaluated through a DAF-2 assay.
Specifically, a reagent stock solution was made using DMSO (dimethyl sulfoxide) in order to prepare 5 mM of DAF-2, 100 mM of SNAP and 5 mM of the compound synthesized in each of the Examples, and for the reaction, the solution was added to a PBS (phosphate buffered saline) solution so that DAF-2, SNAP and the compound had final concentrations of 10 µM, 100 µM and the concentration of Table 1, respectively, followed by a reaction for 3 hours in a 37°C incubator.

The next assay concerns Raw 264.7 cell line. The assay can be described thus: NO scavenging activity in LPS-treated immune cells (Griess reagent). It counts as cell-based. The following applies: 24 hours; for activity at 10 µM: Mus musculus, RAW264.7, Raw 264.7, LPS 500 ng/mL, read-out: NO Scavenging Activity (%) (Mean±SD). As for the experimental part: Raw 264.7 cell line was seeded in a 48-well plate at a density of 8×10^4 cells/well, and cultured at 37°C in a DMEM medium including 10% FBS, 100 U/mL of penicillin and 100 µg/mL of streptomycin.
The medium was cultured overnight, and then replaced with a fresh medium including 10 µM of the pharmaceutical composition sensitive to nitrogen monoxide including the compound of each of Examples 1 to 30 and 500 ng/mL of LPS, and the fresh medium was cultured again for another 24 hours.
Lastly, in order to measure the amount of NO produced, the amount of NO2^- present in the cell culture medium was measured using a Griess reagent (sulfanilamide, N-1-naphthylethylenediamine dihydrochloride). Specifically, 100 µL of a Griess reagent was mixed with a mixture solution of 50 µL of the cell culture medium and 50 µL of PBS. The mixture solution was reacted for 10 minutes in a well plate, and absorbance thereof at 540 nm was measured.

Assay [2] can be described thus: DAF-2 assay of NO scavenging activity without and with H2O2 (ROS). It counts as biochemical. The following applies: SNAP 100 µM, DAF-2 10 µM, 3 hours, 37°C; for NO Scavenging Activity (%) (Mean±SD) With H2O2: H2O2 1 mM. The protocol: The pharmaceutical composition sensitive to nitrogen monoxide including the compound according to each of Examples 23 to 28 and 32 may have scavenging activity for reactive oxygen species (ROS). NO scavenging activity of the pharmaceutical composition was evaluated through a DAF-2 assay.
Specifically, to a 100 µM solution of SNAP, the compound synthesized in each of the Examples was added at a concentration of the following Table 2, and reacted. Then 10 µM of DAF-2 was added thereto, followed by a reaction for 3 hours in a 37°C incubator.
Additionally, a stock solution of H2O2 (10 M) was added to the reaction solution so that SNAP and H2O2 had final concentrations of 100 µM and 1 mM, respectively. Then, the compound synthesized in each of the Examples was added thereto at a concentration of the following Table 11, followed by a reaction in the same manner, and NO scavenging activity was calculated by Equation 1.

For the compound “cyanocobalamin [Vitamin B12, reference compound]”, the “NO Scavenging Activity (%) (Mean±SD)” value in assay [1] (compound 1 µM) was 3.18± 1.03%; in assay [1] (compound 5 µM), 8.98± 2.46%; in assay [1] (compound 10 µM) it was 12.37 ±3.73%; in assay [1] (compound 100 µM), 41.09 ±1.57%; in assay [1] (compound 1,000 µM), 99.48 ±0.95%.
Consider `C[C@@H]1CCN(C(=O)CC#N)C[C@@H]1N(C)c1ncnc2c1ccn2C(=O)Nc1cc(O)ccc1N` [Example 9, N-(2-amino-5-hydroxyphenyl)-4-(((3R,4R)-1-(2-cyanoacetyl)-4-methylpiperidin-3-yl)(methyl)amino)-7H-pyrrolo[2,3-d]pyrimidine-7-carboxamide], for which the activity at 10 µM in the assay on Raw 264.7 cell line worked out at 78.9 ± 0.21%.
Regarding `CC[C@@H]1CN(C(=O)NCC(F)(F)F)C[C@@H]1c1cnc2cnc3c(ccn3C(=O)Nc3cc4c(cc3NC(=O)OCc3ccc(B(O)O)cc3)n(C)c(=O)n4C)n12` [Example 32, (4-((((6-(8-((3R,4S)-4-ethyl-1-((2,2,2-trifluoroethyl)carbamoyl)pyrrolidin-3-yl)-3H-imidazo[1,2-a]pyrrolo[2,3-e]pyrazine-3-carboxamido)-1,3-dimethyl-2-oxo-2,3-dihydro-1H-benzo[d]imidazol-5-yl)carbamoyl)oxy)methyl)phenyl)boronic acid], the “NO Scavenging Activity (%) (Mean±SD) Without H2O2” value in assay [2] (compound 1 µM) is listed as 6.42± 10.86%; in assay [2] (compound 5 µM) it was 6.84± 5.21%; in assay [2] (compound 10 µM), 9.26± 5.51%. Also, the entries for the “NO Scavenging Activity (%) (Mean±SD) With H2O2” value in assay [2] (compound 1 µM), in assay [2] (compound 5 µM) and in assay [2] (compound 10 µM) were 4.05± 3.57%, 29.92 ±7.09% and 32.06 ±3.99%, respectively.
Take `Cc1ccc(NC(=O)OCC(=O)C2(O)C(C)CC3C4CCC5=CC(=O)C=CC5(C)C4(F)C(O)CC32C)c(N)c1` (centres unmarked) [Example 34, 2-(9-fluoro-11,17-dihydroxy-10,13,16-trimethyl-3-oxo-6,7,8,9,10,11,12,13,14,15,16,17-dodecahydro-3H-cyclopenta[a]phenanthren-17-yl)-2-oxoethyl (2-amino-4-methylphenyl) carbamate]: the “NO Scavenging Activity (%) (Mean±SD)” value in assay [1] (compound 10 µM) is recorded as 0.76± 5.81%.
With `C[C@@H]1CCN(C(=O)CC#N)C[C@@H]1N(C)c1ncnc2c1ccn2C(=O)N(C)CCN(C)C(=O)Nc1ccccc1N` [Example 14, N-(2-(3-(2-aminophenyl)-1-methylureido)ethyl)-4-(((3R,4R)-1-(2-cyanoacetyl)-4-methylpiperidin-3-yl)(methyl)amino)-N-methyl-7H-pyrrolo[2,3-d]pyrimidine-7-carboxamide], the activity at 10 µM in the assay on Raw 264.7 cell line is 46 ± 2.52%.
With `CC1CC2C3CCC4=CC(=O)C=CC4(C)C3(F)C(O)CC2(C)C1(O)C(=O)COC(=O)Nc1ccccc1N` (centres unmarked) [Example 33, 2-(9-fluoro-11,17-dihydroxy-10,13,16-trimethyl-3-oxo-6,7,8,9,10,11,12,13,14,15,16,17-dodecahydro-3H-cyclopenta[a]phenanthren-17-yl)-2-oxoethyl (2-aminophenyl) carbamate], the figures for the “NO Scavenging Activity (%) (Mean±SD)” value in assay [1] (compound 1 µM), in assay [1] (compound 5 µM) and in assay [1] (compound 10 µM) were 2.22± 4.76%, 1.72± 4.28% and 1.52± 10.22%, respectively.
For the compound `C[C@@H]1CCN(C(=O)CC#N)C[C@@H]1N(C)c1ncnc2c1ccn2C(=O)N(C)CCN(C)C(=O)Nc1ccc(O)cc1N` [Example 19, N-(2-(3-(2-amino-4-hydroxyphenyl)-1-methylureido)ethyl)-4-(((3R,4R)-1-(2-cyanoacetyl)-4-methylpiperidin-3-yl) (methyl)amino)-N-methyl-7H-pyrrolo[2,3-d]pyrimidine-7-carboxamide], the activity at 10 µM in the assay on Raw 264.7 cell line came out at 54.1 ± 2.51%.
With `CC[C@@H]1CN(C(=O)NCC(F)(F)F)C[C@@H]1c1cnc2cnc3c(ccn3C(=O)Nc3cc4c(cc3N)n(C)c(=O)n4C)n12` [Example 31, N-(6-amino-1,3-dimethyl-2-oxo-2,3-dihydro-1H-benzo[d]imidazol-5-yl)-8-((3R,4S)-4-ethyl-1-((2,2,2-trifluoroethyl)carbamoyl)pyrrolidin-3-yl)-3H-imidazo[1,2-a]pyrrolo[2,3-e]pyrazine-3-carboxamide], the “NO Scavenging Activity (%) (Mean±SD)” value in assay [1] (compound 1 µM) is reported as 79.61 ±3.60%; in assay [1] (compound 5 µM), 90.34 ±0.98%; in assay [1] (compound 10 µM), 92.21 ±0.98%.
`C[C@@H]1CCN(C(=O)CC#N)C[C@@H]1N(C)c1ncnc2c1ccn2C(=O)Nc1ccc(O)cc1N` [Example 8, N-(2-amino-4-hydroxyphenyl)-4-(((3R,4R)-1-(2-cyanoacetyl)-4-methylpiperidin-3-yl)(methyl)amino)-7H-pyrrolo[2,3-d]pyrimidine-7-carboxamide]: the activity at 10 µM in the assay with Raw 264.7 cell line was found to be 72.6 ± 0.31%.
The same measure, in the same setting: in the case of `COc1ccc(N)c(NC(=O)n2ccc3c(N(C)[C@H]4CN(C(=O)CC#N)CC[C@H]4C)ncnc32)c1` [Example 7, N-(2-amino-5-methoxyphenyl)-4-(((3R,4R)-1-(2-cyanoacetyl)-4-methylpiperidin-3-yl)(methyl)amino)-7H-pyrrolo[2,3-d]pyrimidine-7-carboxamide] it was 88.2 ± 0.06%; in that of `COc1ccc(NC(=O)N(C)CCN(C)C(=O)n2ccc3c(N(C)[C@H]4CN(C(=O)CC#N)CC[C@H]4C)ncnc32)c(N)c1` [Example 17, N-(2-(3-(2-amino-4-methoxyphenyl)-1-methylureido)ethyl)-4-(((3R,4R)-1-(2-cyanoacetyl)-4-methylpiperidin-3-yl) (methyl)amino)-N-methyl-7H-pyrrolo[2,3-d]pyrimidine-7-carboxamide], 29.6 ± 2.95%.
In the case of “N-(2-(3-(2-amino-5-hydroxyphenyl)-1-methylureido)ethyl)-4-(((1S,2R)-5-(2-cyanoacetyl)-2-methylcyclohexyl) (methyl)amino)-N-methyl-7H-pyrrolo[2,3-d]pyrimidine-7-carboxamide [Example 20]”, the “NO Scavenging Activity (%) (Mean±SD)” value in the assay on Raw 264.7 cell line (10 µM, Raw 264.7, LPS 500 ng/mL) is 59.5±0.11%.
Consider `COc1ccc(NC(=O)n2ccc3c(N(C)[C@H]4CN(C(=O)CC#N)CC[C@H]4C)ncnc32)c(N)c1` [Example 6, N-(2-amino-4-methoxyphenyl)-4-(((3R,4R)-1-(2-cyanoacetyl)-4-methylpiperidin-3-yl)(methyl)amino)-7H-pyrrolo[2,3-d]pyrimidine-7-carboxamide], for which the activity at 10 µM in the assay with Raw 264.7 cell line worked out at 68.5 ± 0.11%.
